According to patent publication US20250011296A1, “MODULATORS OF MOLECULAR TARGETS EXPRESSED IN METABOLIC AND INFLAMMATORY DISORDERS” (Ohio State Innovation Foundation, priority 2021, published 2025):
Like-named read-outs stand apart in the source and are kept apart here.

Key:
[1] = target: T1, PARP-5 (tankyrase-1, TNKS1) (Homo sapiens, UniProt O95271); assay: PARP-5 enzyme assay (TNKS1 Histone Ribosylation Assay kit); assay type: biochemical; details: for PARP-5 inhibitory activity / PARP-5% inhibition: 50 μg/mL; for PARP-5% inhibition: Table 20 summary; for inhibition at 50 µg/mL: read-out: PARP-5% inhibition, Table 15, isolates at 50 μg/mL
T1 construct: purchased BPS Bioscience Inc
T1 sequence (O95271 1-1327): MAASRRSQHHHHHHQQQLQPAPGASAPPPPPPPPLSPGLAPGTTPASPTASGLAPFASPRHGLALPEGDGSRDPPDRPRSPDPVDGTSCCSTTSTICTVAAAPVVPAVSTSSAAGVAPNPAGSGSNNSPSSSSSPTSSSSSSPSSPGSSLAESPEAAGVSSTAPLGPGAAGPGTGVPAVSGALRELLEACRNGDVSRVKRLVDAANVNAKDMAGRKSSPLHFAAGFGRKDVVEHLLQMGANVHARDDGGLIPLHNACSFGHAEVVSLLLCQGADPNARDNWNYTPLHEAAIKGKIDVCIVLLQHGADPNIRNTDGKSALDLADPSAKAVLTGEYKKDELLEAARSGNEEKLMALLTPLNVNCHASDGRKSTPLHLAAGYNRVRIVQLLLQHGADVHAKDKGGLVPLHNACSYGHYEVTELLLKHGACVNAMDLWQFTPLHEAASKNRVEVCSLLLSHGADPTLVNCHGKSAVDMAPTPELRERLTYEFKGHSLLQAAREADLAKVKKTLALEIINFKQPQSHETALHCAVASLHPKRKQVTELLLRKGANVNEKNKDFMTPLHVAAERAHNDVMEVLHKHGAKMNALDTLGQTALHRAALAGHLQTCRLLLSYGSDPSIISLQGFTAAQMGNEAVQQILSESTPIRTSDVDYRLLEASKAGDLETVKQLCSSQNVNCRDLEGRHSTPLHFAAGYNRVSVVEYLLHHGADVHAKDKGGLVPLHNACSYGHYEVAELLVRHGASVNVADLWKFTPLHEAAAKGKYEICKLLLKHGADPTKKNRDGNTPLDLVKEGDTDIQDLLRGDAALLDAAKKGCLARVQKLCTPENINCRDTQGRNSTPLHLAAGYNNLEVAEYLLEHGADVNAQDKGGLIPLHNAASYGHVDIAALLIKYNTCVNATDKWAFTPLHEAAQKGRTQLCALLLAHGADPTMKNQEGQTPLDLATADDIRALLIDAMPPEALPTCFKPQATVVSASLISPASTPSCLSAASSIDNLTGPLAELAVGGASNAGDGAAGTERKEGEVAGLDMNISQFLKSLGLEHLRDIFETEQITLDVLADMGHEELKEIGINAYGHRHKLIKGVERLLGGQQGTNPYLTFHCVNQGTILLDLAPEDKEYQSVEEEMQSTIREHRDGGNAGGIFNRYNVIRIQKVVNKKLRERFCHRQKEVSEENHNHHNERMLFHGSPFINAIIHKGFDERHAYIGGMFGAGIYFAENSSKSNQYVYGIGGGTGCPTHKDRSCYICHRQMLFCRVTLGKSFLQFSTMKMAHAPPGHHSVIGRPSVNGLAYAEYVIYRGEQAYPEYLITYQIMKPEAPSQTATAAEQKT
Procedure: Poly (ADP-ribose) polymerase 5 (PARP-5, also known as tankyrase-1 or TNKS1), is a nuclear enzyme involved in repairing single strand DNA breaks. Agonists of PARP-5 induce DNA repair, but the cost of PARP-5 activation is to slow glycolysis and limit GLUT-4-mediated glucose uptake. Small-molecule inhibition of the PARP-5 enzyme potentiates antidiabetic activities by increasing glucose uptake and insulin sensitivity. Extracts and compounds from the arils of M. fragrans were tested by using the TNKS1 Histone Ribosylation Assay kit (BPS Bioscience Inc.) according to the kit protocol. First, microplate wells were coated with immobilized histone substrate (50 μL) overnight at 4° C., then washed 3 times with PBS-Tween (200 μL). The wells were treated with blocking buffer and washed 3 times with PBS-Tween. The reaction mixture, which contained TNKS assay buffer and NAD+, was added to each sample well. Diluted sample solutions were added to the corresponding wells to achieve final concentrations of 50 μg/mL, followed by TNKS1 enzyme. After 1 hour, the plates were washed 3 times with PBS-Tween and incubated with primary antibody (1:800) for another hour. Following PBS-Tween wash, the secondary-HRP antibody was added (1:1000), incubated for 30 minutes, and finally chemiluminescent substrate was added. The plates were immediately measured for luminescence in the FLUOstar Optima plate reader (BMG Labtechnologies, GmbH, Inc.). The positive control included TNKS1 enzyme, NAD+, and DMSO; the substrate control included enzyme and DMSO; and the negative control included NAD+ and DMSO.297,304 The mace ethyl acetate fractions were screened for PARP-5 inhibition (Table 4).

NFκB = target: T2, NFκB (Homo sapiens, UniProt Q04206); assay: NFκB assay (EZ-Detect Transcription Factor Assay kit; TNF-α-treated HeLa cells, nuclear extracts); assay type: cell-based
T2 construct: endogenous in cells; host or cells: HeLa cells (ATCC), nuclear extract
Procedure: To assess the ability of natural product extracts and compounds to inhibit the specific binding of activated NFκB transcription factor to the biotinylated consensus sequence, the EZ-Detect™ Transcription Factor Assay kit (Pierce Biotechnology) was used according to the kit manual and established protocol. HeLa cells (ATCC) were treated with each test sample and TNF-α, nuclear extracts harvested using the NE-PER kit (Pierce Biotechnology), and protein content equilibrated using the Pierce BCA Protein Assay kit (Pierce Biotechnology). Specific binding was detected through quantification of chemiluminescent signal in a plate reader (FLUOstar Optima, BMG Labtechnologies GmbH, Inc.).

[2] = Table 20 summary, read-out: NFκBIC50

T2 sequence (Q04206 whole entry): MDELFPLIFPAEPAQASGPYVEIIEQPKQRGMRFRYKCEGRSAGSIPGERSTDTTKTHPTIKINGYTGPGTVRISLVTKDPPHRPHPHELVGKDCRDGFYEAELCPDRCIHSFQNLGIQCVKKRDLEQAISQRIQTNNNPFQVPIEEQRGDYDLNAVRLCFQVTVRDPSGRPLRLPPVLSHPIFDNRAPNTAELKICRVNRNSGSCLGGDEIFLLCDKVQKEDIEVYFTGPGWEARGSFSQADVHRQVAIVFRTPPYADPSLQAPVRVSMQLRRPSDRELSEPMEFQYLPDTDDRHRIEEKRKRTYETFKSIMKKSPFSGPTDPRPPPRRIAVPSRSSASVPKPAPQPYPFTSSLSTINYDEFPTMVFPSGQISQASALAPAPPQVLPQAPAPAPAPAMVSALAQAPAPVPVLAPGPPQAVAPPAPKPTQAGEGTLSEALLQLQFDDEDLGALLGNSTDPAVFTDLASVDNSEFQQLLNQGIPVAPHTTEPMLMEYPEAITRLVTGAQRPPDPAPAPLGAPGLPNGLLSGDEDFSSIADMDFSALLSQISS

For `C/C=C/c1cc(OC)c2c(c1)[C@H](C)[C@@H](c1ccc3c(c1)OCO3)O2` [Compound 41, licarin B], the “PARP-5 inhibitory activity” value [1] was “not effective PARP-5 inhibitors”, the PARP-5% inhibition [1] was <50% and the inhibition at 50 µg/mL [1] was < 50%. It also gave an IC50 (NFκB; [2]) of 479 nM and an IC50 (NFκB; in vitro NFκB assay) of 475 nM.

For `C/C=C/c1cc(OC)c2c(c1)[C@H](C)[C@@H](c1ccc(O)c(OC)c1)O2` [Compound 42, licarin A], the “PARP-5 inhibitory activity” value [1] was “not effective PARP-5 inhibitors”, the PARP-5% inhibition [1] was <50% and the inhibition at 50 µg/mL [1] was < 50%. The IC50 (NFκB; Table 13, tested at 50, 5, 0.5 and 0.05 μg/mL) was 30.6 nM, the IC50 (NFκB; [2]) was 30.6 nM and the IC50 (NFκB; in vitro NFκB assay) was 30.6 nM.
